Source: patent US7105679B2, “Heteroatom containing tetracyclic derivatives as selective estrogen receptor modulators” (priority 2001, dated 2006)
Values joined by “and” are separate entries in the source; they are usually repeats but may differ in a detail not shown here. Identical values can stand only once. Like-named read-outs stand apart in the source and are kept apart here.

What was measured:
[1] = target: T1, human estrogen receptor α (Homo sapiens, UniProt P03372); assay: Estrogen Receptor α Flash Plate Assay (binding of radiolabeled estrogen)
T1 construct: purchased Panvera
T1 sequence (P03372 1-595): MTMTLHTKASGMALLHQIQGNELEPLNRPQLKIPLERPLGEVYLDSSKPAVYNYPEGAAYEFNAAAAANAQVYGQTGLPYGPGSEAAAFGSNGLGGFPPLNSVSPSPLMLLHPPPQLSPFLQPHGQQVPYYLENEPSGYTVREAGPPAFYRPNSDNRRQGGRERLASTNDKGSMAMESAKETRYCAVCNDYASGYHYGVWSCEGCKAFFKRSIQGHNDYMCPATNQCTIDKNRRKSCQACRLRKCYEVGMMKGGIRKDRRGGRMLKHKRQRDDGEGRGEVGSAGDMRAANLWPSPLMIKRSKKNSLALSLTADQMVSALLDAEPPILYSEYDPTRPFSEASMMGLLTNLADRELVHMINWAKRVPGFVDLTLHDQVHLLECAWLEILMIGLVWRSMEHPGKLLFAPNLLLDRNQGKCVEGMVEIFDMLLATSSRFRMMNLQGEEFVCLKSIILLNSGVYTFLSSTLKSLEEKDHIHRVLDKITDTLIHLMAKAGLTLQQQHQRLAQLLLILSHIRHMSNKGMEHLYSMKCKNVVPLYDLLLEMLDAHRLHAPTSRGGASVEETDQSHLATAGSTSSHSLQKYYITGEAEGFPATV
Experimental: This assay monitors binding of radiolabeled estrogen to the estrogen receptor. It is performed on a BioMek 2000 (Beckman). Plates are read in a scintillation counter (Packard TopCount), with decreased counts an indication of binding of a compound to the receptor.
The plate was sealed and incubated at 4° C. overnight.
On day two, each well was washed three times with 200 μL PBS, pH 7.2, at room temperature. To each well was then added 98 μL radiolabeled estrogen (0.5 nM, which equals 6 nCi for a 120 Ci/mmol batch, Amersham), diluted in ESB and 5 mM dithiothreitol (DTT). To individual wells were then added 2.5 μL test compound diluted in 30% (v/v) dimethyl sulfoxide/50 mM HEPES, pH 7.5. The wells were mixed three times by aspiration, the plate sealed and incubated at room temperature for one hour. The wells were then counted for 1 min in a TopCount scintillation counter (Packard).

MCF-7 cells = assay: MCF-7 Cell Proliferation Assay (14C-thymidine, agonist and antagonist mode); assay type: cell-based; details: number in brackets = number of tests, NA = no detected activity at test concentration
Experimental: This assay was run according to the procedure described by Welshons, et al., (Breast Cancer Res. Treat., 1987, 10(2), 169-75), with minor modification.
Briefly, MCF-7 cells (from Dr. C. Jordan, Northwestern University) were maintained in RPMI 1640 phenol red free medium (Gibco) in 10% FBS (Hyclone), supplemented with bovine insulin and non-essential amino acid (Sigma). The cells were initially treated with 4-hydoxyltamoxifen (10^−8 M) and let stand at 37° C. for 24 hours. Following this incubation with tamoxifen, the cells were treated with compounds at various concentrations.
Compounds to be tested in the agonist mode were added to the culture media at varying concentrations. Compounds to be treated in the antagonist mode were prepared similarly, and 10 nM 17β-estradiol was also added to the culture media. The cells were incubated for 24 hours at 37° C. Following this incubation, 0.1 μCi of ^14C-thymidine (56 mCi/mmol, Amersham) was added to the culture media and the cells were incubated for an additional 24 hours at 37° C. The cells were then washed twice with Hank's buffered salt solution (HBSS) (Gibco) and counted with a scintillation counter. The increase in the ^14C-thymidine in the compound treated cells relative to the vehicle control cells were reported as percent increase in cell proliferation.

Ishikawa cells = assay: Alkaline Phosphatase Assay in Human Endometrial Ishikawa Cells (agonist and antagonist mode); assay type: cell-based; details: number in brackets = number of tests, NA = no detected activity at test concentration; for IC50: antagonist mode with 10 nM 17β-estradiol; for EC50: agonist mode
Experimental: This assay was run according to the procedure described by Albert et a., Cancer Res, […], 50(11), 330-6-10, with minor modification.
Ishikawa cells (from ATCC) were maintained in DMEM/F12 (1:1) phenol red free medium (Gibco) supplemented with 10% calf serum (Hyclone). 24 hours prior to testing, the medium was changed to DMEM/F12 (1:1) phenol red free containing 2% calf serum.
Compounds to be tested in the agonist mode were added to the culture media at varying concentrations. Compounds to be treated in the antagonist mode were prepared similarly, and 10 nM 17β-estradiol was also added to the culture media. The cells were then incubated at 37° C. for 3 days. On the fourth day, the media was remove, 1 volume of 1× Dilution Buffer (Clontech) was added to the well followed by addition of 1 volume of Assay Buffer (Clontech). The cells were then incubated at room temperature for 5 minutes. […] The cells were incubated at room temperature for 10 minutes and then quantified on a luminometer. The increase of chemiluminescence over vehicle control was used to calculate the increase in alkaline phosphatase activity.

hER-β = target: T2, hER-β (Homo sapiens, UniProt Q92731); assay: Estrogen Receptor β Fluorescence Polarization Assay (binding of Fluormone ES2)
T2 construct: purchased Panvera
Source text: This assay monitors binding of a fluorescent analog of estrogen (Fluormone ES2, Panvera) to the estrogen receptor. Plates are read in a fluorometer that can be set to polarization mode. A decrease in […] relative to vehicle control is an indication of binding of a compound to the receptor.
It is crucial to avoid introduction of air bubbles into the reaction in each well of the 96 well plate throughout this procedure. (Bubbles on the surface of the reaction disrupt light flow, affecting the polarization reading.) However, it is also crucial to effectively mix the reaction components upon addition to the well.
On ice, a 2× standard mixture of Assay Buffer (Panvera), 10 nM DTT and 40 nM ES2 was prepared. On ice, a 2× reaction mixture of Assay Buffer (Panvera), and 20 nM hER-β (Panvera) and 40 nM ES2 was also prepared.
Dilutions of test compound were prepared in 30% (v/v) dimethyl sulfoxide/50 mM HEPES, pH 7.5. At this point, the dilutions were 40× the final required concentration.
The standard mixture at 50 μL was then added to each well. The reaction mixture at 48 μL was added to all wells. The compound dilution at 2.5 μL was added to the appropriate wells. The reaction mixtures were mixed using a manual pipette, a roll of aluminum foil adhesive cover was placed on the plate and the plate incubated at room temperature for 1 hour.

[2] = flash plate binding, 0.5 nM radiolabeled estrogen, number in brackets = No. of determinations, NA = no detected activity at test concentration, read-out: Estrogen Receptor α in μM (No.)
[3] = Homo sapiens, MCF7, antagonist mode with 10 nM 17β-estradiol
[4] = antagonist mode with 10 nM 17β-estradiol
[5] = fluorescence polarization binding, Fluormone ES2, number in brackets = No. of determinations, NA = no detected activity at test concentration, read-out: Estrogen Receptor β in μM (No.)
[6] = Homo sapiens, MCF7, agonist mode

T2 sequence (Q92731 whole entry): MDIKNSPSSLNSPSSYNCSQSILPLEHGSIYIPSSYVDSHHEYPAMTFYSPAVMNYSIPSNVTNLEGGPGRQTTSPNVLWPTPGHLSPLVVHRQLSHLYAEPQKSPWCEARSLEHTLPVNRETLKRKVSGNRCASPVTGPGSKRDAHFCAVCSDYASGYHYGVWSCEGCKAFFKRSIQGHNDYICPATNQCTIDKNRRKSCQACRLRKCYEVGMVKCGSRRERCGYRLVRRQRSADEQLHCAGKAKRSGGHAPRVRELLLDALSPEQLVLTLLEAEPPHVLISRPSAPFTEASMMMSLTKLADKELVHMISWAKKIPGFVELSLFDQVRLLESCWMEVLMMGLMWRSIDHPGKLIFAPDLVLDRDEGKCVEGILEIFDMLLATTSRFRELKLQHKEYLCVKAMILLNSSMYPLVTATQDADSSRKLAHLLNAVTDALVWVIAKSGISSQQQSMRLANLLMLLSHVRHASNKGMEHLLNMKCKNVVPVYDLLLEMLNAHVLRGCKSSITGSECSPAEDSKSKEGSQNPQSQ

SMILES | IC50 [1, 2] [µM] | IC50 (MCF-7 cells; [3]) [µM] | IC50 (Ishikawa cells; Homo sapiens) [µM] | IC50 (hER-β; [5]) | EC50 (MCF-7 cells; [6]) [µM] | EC50 (Ishikawa cells; Homo sapiens) [µM] | further results
COc1ccc2c(c1)OCC1=C2[C@H](c2ccc(OCCN3CCCCC3)cc2)Oc2cc(O)ccc21 (single isomer, unassigned) [Compound 181, 8-Methoxy-11S*(−)-[4-(2-piperidin-1-yl-ethoxy)-phenyl]-5,11-dihydro-chromeno[4,3-c]chromen-2-ol] | 0.0011 | 1.33 | 0.034 |  |  |  | 
COc1ccc2c(c1)OCCC1=C2C(c2ccc(OCCN3CCCCC3)cc2)Oc2cc(O)ccc21 (single isomer, unassigned) [Compound 196, 2-Methoxy-5S*-(−)-[4-(2-piperidin-1-yl-ethoxy)-phenyl]-11,12-dihydro-5H-6,13-dioxa-benzo[3,4]cyclohepta[1,2-a]naphthalen-8-ol] | 0.055 |  |  |  |  |  | IC50 (MCF-7 cells; [4]): > 1 µM; IC50 (Ishikawa cells): 0.229 µM
COc1ccc2c(c1)OCCC1=C2C(c2ccc(OCCN3CCCCC3)cc2)Oc2cc(O)ccc21 (single isomer, unassigned) [Compound 301, 2-Methoxy-5R*-(+)-[4-(2-piperidin-1-yl-ethoxy)-phenyl]-11,12-dihydro-5H-6,13-dioxa-benzo[3,4]cyclohepta[1,2-a]naphthalen-8-ol] | 0.0041 |  |  | 0.189 µM |  |  | 
COc1ccc2c(c1)OC(c1ccc(OCCN3CCCCC3)cc1)C1=C2CCOc2cc(O)ccc21 (single isomer, unassigned) [Compound 302, 8-Methoxy-5R*-(+)-[4-(2-piperidin-1-yl-ethoxy)-phenyl]-11,12-dihydro-5H-6,13-dioxa-benzo[3,4]cyclohepta[1,2-a]naphthalen-2-ol] | 0.0116 |  |  | 0.355 µM |  |  | 
Oc1ccc2c(c1)O[C@@H](c1ccc(OCCN3CCCCC3)cc1)C1=C2COc2cc(O)ccc21 (stereo in doubt) [Compound 15, 5S*-(+)-[4-(2-Piperidin-1-yl-ethoxy)-phenyl]-5,11-dihydro-chromeno[4,3-c]chromene-2,8-diol] |  |  |  | 0.017 µM and 0.028 µM |  |  | EC50 (MCF-7 cells; agonist mode): > 10 µM; EC50 (Ishikawa cells): > 10 µM; IC50 (Ishikawa cells): 0.112 µM
c1ccc2c(c1)O[C@@H](c1ccc(OCCN3CCCCC3)cc1)C1=C2COc2ccccc21 (stereo in doubt) [Compound 169, 5S*-(+)-1-{2-[4-(5,11-Dihydro-chromeno[4,3-c]chromen-5-yl)-phenoxy]-ethyl}-piperidine] | 0.072 |  |  |  |  |  | IC50 (MCF-7 cells; [4]): ≥ 10 µM; IC50 (Ishikawa cells): 0.83 µM
Oc1ccc2c(c1)OC(c1ccccc1)C1=C2COc2cc(O)ccc21 (centres unmarked) [Compound 6, 5-Phenyl-5,11-dihydro-chromeno[4,3-c]chromene-2,8-diol] |  | > 10 | > 10 |  | 0.097 | 0.033 | IC50 (hER-β): 0.016 µM
Oc1ccc2c(c1)OC(c1ccc(OCCN3CCCC3)cc1)C1=C2COc2cc(O)ccc21 (centres unmarked) [Compound 11, 5-[4-(2-Pyrrolidin-1-yl-ethoxy)-phenyl]-5,11-dihydrochromeno[4,3-c]chromene-2,8-diol] |  | 0.246 | 0.08 |  | > 10 |  | IC50 (hER-β): 0.7 µM
Oc1ccc2c(c1)OC(c1ccc(OCCN3CCOCC3)cc1)C1=C2COc2cc(O)ccc21 (centres unmarked) [Compound 13, 5-[4-(2-Morphlin-4-yl-ethoxy)-phenyl]-5,11-dihydrochromeno[4,3-c]chromene-2,8-diol] |  | 1.4 | 0.228 |  | > 10 | > 10 | IC50 (hER-β): 0.026 µM
Oc1ccc2c(c1)OC(c1ccc(OCCN3CCCCCC3)cc1)C1=C2COc2cc(O)ccc21 (centres unmarked) [Compound 17, 5-[4-(2-Azepan-1-yl-ethoxy)-phenyl]-5,11-dihydrochromeno[4,3-c]chromene-2,8-diol] |  | 3.58 | 0.513 |  | > 10 | > 10 | IC50 (hER-β): 0.031 µM
CC(C)(C)C(=O)Oc1ccc2c(c1)OC(c1ccc(OCCN3CCCCC3)cc1)C1=C2COc2cc(OC(=O)C(C)(C)C)ccc21 (centres unmarked) [Compound 22, 2,2-Dimethyl-propionic acid, 8-(2,2-dimethyl-propionyloxy)-5-[4-(2-piperidin-1-yl-ethoxy)-phenyl]-5,11-dihydro-chromeno[4,3-c]chromen-2-yl ester] | 3.45 | 0.662 | 0.0535 |  | > 10 | > 10 | 
CC(C)(C)C(=O)Oc1ccc2c(c1)OC(c1ccc(OCCN3CCCCC3)cc1)C1=C2C(O)Oc2cc(OC(=O)C(C)(C)C)ccc21 (centres unmarked) [Compound 28] | 0.14 |  |  | 6.25 µM |  |  | 
CC1(c2ccc(OCCN3CCCCC3)cc2)Oc2cc(O)ccc2C2=C1c1ccc(O)cc1OC2 (centres unmarked) [Compound 29] | 0.004 |  |  | 0.017 µM |  |  | 
CC(C)(C)C(=O)Oc1ccc2c(c1)OC(C)(c1ccc(OCCN3CCCCC3)cc1)C1=C2COc2cc(OC(=O)C(C)(C)C)ccc21 (centres unmarked) [Compound 41, 2,2-Dimethyl-propionic acid 8-(2,2-dimethyl-propionyloxy)-11-methyl-11-[4-(2-piperidin-1-yl-ethoxy)-phenyl]-5,11-dihydro-chromeno[4,3-c]chromen-2-yl ester] | 1.9 | > 10 | 0.55 |  | > 10 | > 10 | 
Oc1ccc2c(c1)OCCC1=C2C(c2ccc(OCCN3CCCCCC3)cc2)Oc2cc(F)ccc21 (centres unmarked) [Compound 174, 5-[4-(2-Azepan-1-yl-ethoxy)-phenyl]-8-fluoro-11,12-dihydro-5H-6,13-dioxa-benzo[3,4]cyclohepta[1,2-a]naphthalen-2-ol] |  | 1.74 | 0.135 |  |  |  | IC50 [1]: 0.0015 µM and 0.0013 µM
